Results published in paper PMC10025185, “A continuous in silico learning strategy to identify safety liabilities in compounds used in the leather and textile industry” (Archives of Toxicology, 2023).
Where two headings read alike, the source gives them in different places.

How the values were obtained:
[1] = logKow as a measure of bioaccumulation, extracted from public databases; assay type: physicochemical; settings: yes/no by logKow, REACH cut off 4,5
[2] = PBT assessment (persistence, bioaccumulation and FET toxicity combined, logical AND); settings: persistent, bioaccumulative and toxic all positive
Description: (§1) Acute toxicity was determined using the OECD236 fish embryo acute toxicity (FET) test (OECD guidelines). To assess the PBT potentiality of the analysed compounds, persistence and the logKow as a measure of bioaccumulation were extracted from public databases (https://comptox.epa.gov/dashboard, and https://echa.europa.eu/es/information-on-chemicals).
Ecotoxicity of selected compounds was screened with the FET assay to determine acute toxicity and using available predictions of persistence and bioaccumulation.

[3] = parameters: method as in earlier work; settings: experimental value; ref https://comptox.epa.gov/dashboard, https://echa.europa.eu/es/information-on-chemicals; cited from earlier work
zebrafish embryos = settings: FET assay
Description: as §1

[4] = tested on: androgen and oestrogen receptors; assay: ED assays of androgen and oestrogen receptors (overall experimental ED result); assay type: cell-based
Description: The transcriptional activation of androgen receptor (AR) assays was carried out by adapting the OECD protocol 458 (OECD [2020]).
MDA-MB-453 cells (8000 cells/well) expressing an AR luciferase reporter were seeded into 384 white plates (Greiner 781098) in culture medium (DMEM (ATCC), 10% foetal bovine serum (Sigma Aldrich), 1% penicillin–streptomycin (Sigma-Aldrich), 75 µg/ml geneticin (Gibco) and incubated overnight at 37 °C 5% CO2 and 95% humidity. After this time, the cell culture medium was discarded and replaced by assay medium (DMEM (ATCC), 0.1% foetal bovine serum (Sigma-Aldrich), and 1% penicillin–streptomycin (Sigma Aldrich)).
For studying a putative agonist effect, compounds were added to the assay plate using an Echo 550 acoustic liquid handler and incubated overnight at 37 °C 5% CO2 and 95% humidity. For studying the putative antagonist effect, compounds were added using an Echo 550 acoustic liquid handler and incubated for 15 min at 37 °C 5% CO2 and 95% humidity. Then, 1 nM 5α-dihydrotestosterone (DHT) was added, and the cell plate was incubated overnight at 37 °C, 5% CO2, and 95% humidity. After compound incubation, the cell medium was removed, 5 µl of lysis buffer 1X (Promega) was added, and the cell plate was incubated with agitation 15 min at room temperature. A freeze–thaw cycle of 10 min at −80 °C and room temperature was performed. Then 25 µl of luciferase assay reagent (Promega) was added and luminescence was determined on an EnSpire plate reader (Perkin Elmer). Data was fitted to a four-parameter sigmoidal model with Prism 5.1 (Graphpad, Inc).
The transcriptional activation of oestrogen receptor (ER) assay was carried out by adapting the OECD protocol 455 (OECD [2021]) and the method of Li et al. ([2013]).
ER luciferase reporter T47D cells (5000 cells/well) were seeded into 384 white plates (Greiner 781098) in culture medium (RPMI 1640 (Thermo Fisher Scientific 52400), 10% foetal bovine serum (Sigma Aldrich F9665), 1% penicillin–streptomycin (Sigma-Aldrich P0781), 75 µg/ml Geneticin (Gibco 10131)) and incubated overnight at 37 °C and 5% CO2. The following day, the cell culture medium was discarded and replaced by assay medium (RPMI 1640 (Thermo Fisher Scientific 52,400), 0.1% foetal bovine serum (Sigma Aldrich F9665), and 1% penicillin–streptomycin (Sigma Aldrich P0781).
The assay was performed as stated before for the AR assay using 17β-estradiol as agonist instead of DHT.
ED was assessed by transactivation in vitro assays to identify agonists and antagonists of the androgen and oestrogen receptors.
Also, the experimental group analysed the endocrine-disrupting activity for the CMR compounds.

thyroid system = settings: cited from earlier work

Compound | Bioaccumulation [1] | Bioaccumulation (logKow) [3] | Potential PBT [2] | Experimental result ([4]; endocrine disruptor yes/no) | further results
Clc1cc(Cl)c(Cl)c(Cl)c1Cl [1,2,3,4,5-Pentachlorobenzene] | Yes | 5.17 | – | – | Potential PBT ([2]; listed as Pentachlorobenzene): YES; Potential PBT ([2]; listed as pentachlorobenzene): potential PBT compounds
ClC1C(Cl)C(Cl)C(Cl)C(Cl)C1Cl (stereo not drawn) [(1α,2α,3α,4β,5α,6β)-1,2,3,4,5,6-Hexachlorocyclohexane] | No | 3.95 | – | – | acute toxicity (zebrafish embryos): highly toxic
Oc1cc(Cl)cc(Cl)c1Cl [2,3,5-Trichlorophenol] | No | 3.84 | not a potential PBT compound | – | Experimental result [4]: Yes
O=C(O)C(F)(F)C(F)(F)C(F)(F)C(F)(F)F [Nonafluorovaleric acid] | – | – | – | No | endocrine-disrupting activity (thyroid system; ref Coperchini et al. [2021], Croce et al. [2019]): thyroid system affection
Clc1cc(Cl)c(Cl)c(Cl)c1 [1,2,3,5-Tetrachlorobenzene] | Yes | 4.61 | YES | No | Potential PBT ([2]; listed as 1,2,3,5-tetrachlorobenzene): potential PBT compounds; endocrine-disrupting activity (thyroid system; ref Chu et al. [1983], den Besten et al. [1991]): thyroid system affection
